tested on: Pyricularia oryzae; assay: Fungicidal activity against Magnaporthe oryzae in 7 days old young rice seedlings compound sprayed 1 day after inoculation assessed as efficacy against blast disease measured as lesion level at 200 ppm measured after 7 days of inoculation; type: functional

| Compound | Efficacy [%] |
| --- | --- |
| CC(NC(=O)C1(C(C)C)CC1(Cl)Cl)c1ccc(Cl)cc1 (stereo not drawn) | 0 |
| CC1(C)C(C(=O)O)C1(Cl)Cl (stereo not drawn) | <5 |
| CCOC(=O)C1C(C)(C)C1(Cl)Cl (stereo not drawn) | <5 |
| CC1(C)C(C(=O)Oc2ccccc2)C1(Cl)Cl (stereo not drawn) | <20 |
| CC1(C)C(Cl)(Cl)C1(C)C(=O)O (stereo not drawn) | <20 |
| CCC1(CC)C(C(=O)O)C1(Cl)Cl (stereo not drawn) | <30 |
| CC1(C)C(C#N)C1(Cl)Cl (stereo not drawn) | <30 |
| CC1(C)C(CO)C1(Cl)Cl (stereo not drawn) | <5 |
| CC1(C)C(COC(=O)c2ccccc2)C1(Cl)Cl (stereo not drawn) | <5 |
| CC1(C)C(COC(=O)Nc2ccccc2)C1(Cl)Cl (stereo not drawn) | <5 |
| CC1(C)C(C(N)=O)C1(Cl)Cl (stereo not drawn) | <20 |
| CNC(=O)C1C(C)(C)C1(Cl)Cl (stereo not drawn) | <40 |
| CC1(C)C(C(=O)Nc2ccccc2)C1(Cl)Cl (stereo not drawn) | >40 |
| CC(NC(=O)C1(C)C(C)(C)C1(Cl)Cl)c1ccccc1 (stereo not drawn) | <5 |
| CC(NC(=O)C1(C)C(C)(C)C1(Cl)Cl)c1ccc(Cl)cc1 (stereo not drawn) | 0 |
| CC(NC(=O)C1(C)C(C)(C)C1(Cl)Cl)c1ccc(Br)cc1 (stereo not drawn) | 0 |
| CC[C@]1(C(=O)NC(C)c2ccc(Cl)cc2)[C@H](C)C1(Cl)Cl (stereo partly drawn) [CARPROPAMID] | 0 |

tested on: Pyricularia oryzae; assay: Fungicidal activity against Magnaporthe oryzae in 7 days old young rice seedlings compound sprayed 1 day after inoculation assessed as efficacy against blast disease measured as lesion level at 50 ppm measured after 7 days of inoculation; type: functional

| Compound | Efficacy [%] |
| --- | --- |
| CC(NC(=O)C1(C)C(C)(C)C1(Cl)Cl)c1ccc(Br)cc1 (stereo not drawn) | 0 |
| CC[C@]1(C(=O)NC(C)c2ccc(Cl)cc2)[C@H](C)C1(Cl)Cl (mixture of isomers) [CARPROPAMID] | 0 |
| C[C@@H](NC(=O)C1(C)C(C)(C)C1(Cl)Cl)c1ccc(Br)cc1 (stereo in doubt; 17(Rd)) | 0 |
| C[C@@H](NC(=O)C1(C)C(C)(C)C1(Cl)Cl)c1ccc(Br)cc1 (stereo in doubt; 17(Rl)) | <5 |
| C[C@H](NC(=O)C1(C)C(C)(C)C1(Cl)Cl)c1ccc(Br)cc1 (stereo in doubt; 17(Sl)) | <20 |
| CC[C@]1(C(=O)N[C@H](C)c2ccc(Cl)cc2)[C@H](C)C1(Cl)Cl [trans-Carpropamid] | 0 |

Reference: ChEMBL document CHEMBL3044822, “Carpropamid, a New Fungicide for Rice Blast Control” (1998)
